Experimental data published in patent US6528510B1, “HIV protease inhibitors” (Warner-Lambert Company, priority 1998, dated 2003).
Like-named read-outs stand apart in the source and are kept apart here.

How the values were obtained:
[1] = tested on: HIV infected lymphocyte derived CEM cells; experiment: Cellular infection assay in CEM cells, XTT cytopathic procedure (EC50); conditions: for TI (therapeutic index, TC50/EC50): CEM cells; for EC50: read-out: Antiviral Efficacy EC50
Description: (§1) Compound concentrations were 0.32, 1, 3.2, 10, 32, and 100 uM.

[2] = tested on: uninfected CEM cells; experiment: Cellular toxicity in uninfected CEM cells, XTT (TC50)
Description: as §1

[3] = target: T1, Recombinant HIV-1 protease (Human immunodeficiency virus type 1 group M subtype B, UniProt P04585); experiment: HIV protease assay (Ki determination, HPLC readout of substrate III cleavage); assay type: biochemical
T1 construct: Recombinant HIV-1 protease (>96% purity); purchased Bachem Bioscience, Inc. (King of Prussia, Pa.)
Description: Recombinant HIV-1 protease (>96% purity) and HIV protease substrate III (the undecapeptide H-His-Lys-Ala-Arg-Val-Leu-Nph-Glu-Ala-Nle-Ser-NH2, 97% purity) were purchased from Bachem Bioscience, Inc. (King of Prussia, Pa.).
The methods employed follow the procedures of Tummino, et al., Archives of Biochemistry and Biophysics, 1995;316:523). […] (total volume, […]). […] The final inhibitor concentrations used were 0 (0.1, 0.2, in some experiments), 0.5, 1, 2, 5, 10, 20, 50, and 100 μM. The solution was mixed, incubated for 5 minutes and the reaction quenched by addition of trifluoracetic acid, 2% final. The (leu-p-nitro-phe) bond of the substrate is cleaved by the enzyme and substrate arid products separated by reverse-phase HPLC. Absorbance was measured at 220 nm, peak areas determined, and percentage conversion to product used to calculate percentage control (=[% conversion (+inhibitor)/% conversion (−inhibitor)]×100).

[4] = Mouse blood levels after oral dosing; assay type: in vivo, Charles River CD-1 mice; conditions: CD-1, mouse, plasma, mice, oral dose of 25 mg/kg; for Cmax: read-out: Cmax (maximum concentration reached within the plasma); for half-life: read-out: T 1/2 (half life) (converted)
Description: Charles River CD-1 mice were dosed with a 25 mg/kg drug solution orally by gavage. For oral dosing the compounds were dissolved in 0.1N NaOH (20% final volume) and then 0.5% methylcellulose (80% final volume) was added. Blood was drawn and pooled from 5 mice at each time point via heart puncture and was placed in a 15 mL centrifuge tube containing heparin. The plasma stored in 200 μL aliquots at −80° C. until assayed.
Plasma was thawed at room temperature and then 400 μL of acetonitrile was added to each vial and vortexed. Following centrifugation the supernatant was removed and evaporated in a nitrogen evaporator at 48° C. Residue was then resolublized in 200 μL of a 75% water/25% CH3CN solution for HPLC analysis. HPLC analysis used a Zorbax RX-C8 column (4.6×150 mm) with a 25 mM potassium phosphate buffer with 0.1% TFA, pH 3.0. Mobile phases consisted of varying percentages of two buffer mixtures: Buffer A—90% buffer, 10% CH3CN, and Buffer B—30% buffer, 70% CH3CN.
A standard curve ranging from 0.5 to 50 μg/mL was used for each drug tested. Ten times final concentration solutions of drug in water were prepared from stock solutions of 1 mg/mL drug in DMSO. The final 1:10 dilution was then done in mouse plasma obtained from mice described above.

[5] = Rat blood levels after oral dosing; assay type: in vivo; conditions: male, plasma, rats, oral dose of 10 mg/kg; for Cmax: read-out: Cmax (maximum concentration reached within the plasma); for half-life: read-out: T 1/2 (half life) (converted)
Description: (§2) The procedure for pharmacokinetics analysis in dogs and rats was similar. For dog studies, two dogs received a single oral 10 mg/kg dose of the HIV protease inhibitor as a solution. The protease inhibitor was dissolve in 0.1N NaOH followed by buffering or diluting with isotonic phosphate buffer or water depending on solubility. For rat studies. two male rats received a single oral 10 mg/kg gavage dose of the HIV protease inhibitor suspended in 0.5% methylcellulose. For the IV administration, the compounds were dissolved in 0.1N sodium hydroxide at a concentration of 10 mg/ml. The IV dose was given bolus. Blood samples were collected prior to dosing and at 0.25, 0.5, 1, 1.5, 2, 3, 4, 8, 12, and 24 hours postdose. Plasma samples were analyzed for the HIV protease inhibitor using a HPLC procedure. The method involved plasma protein precipitation with acetonitrile, reverse-phase chromatographic separation of the HIV protease inhibitor and internal standard, and quantitation by UV detection. Some plasma samples were concentrated by evaporation prior to injection. Pharmacokinetic parameters were determined by noncompartmental analysis of individual rat-plasma concentration-time curves using WinNonlin. Maximum concentration (Cmax) and time for these to occur (tmax) were recorded as observed. Area under concentration-time curve (AUC) values were obtained using the linear trapezoidal rule.

[6] = Dog blood levels after oral dosing; assay type: in vivo; conditions: plasma, dogs, oral dose of 10 mg/kg; for half-life: read-out: T 1/2 (half life) (converted)
Description: as §2

[7] = Rat blood levels after IV dosing; assay type: in vivo; conditions: plasma, rats, IV dose of 10 mg/kg; for half-life: read-out: T 1/2 (half life) (converted)
Description: as §2

[8] = Cellular toxicity in uninfected CEM cells, XTT (TC50); conditions: human, uninfected CEM cells (lymphocyte derived)
Description: as §1

[9] = as disclosed by Vander Roest et al., ICAAC 1997, relative to related polar substituted derivatives; cited from earlier work
[10] = tested on: HIV infected lymphocyte derived CEM cells; conditions: as disclosed by Hagen et al., J. Med. Chem. 1997; cited from earlier work
[11] = recombinant HIV-1 protease, read-out: Inhib of HIV Protease KI
[12] = read-out: Antiviral Efficacy TC50, uninfected CEM cells
[13] = Human immunodeficiency virus 1, CCRF-CEM

Compound	TI (therapeutic index, TC50/EC50) [1]	EC50 ([1]; HIV infected CEM cells) [µM]	CC50 [2] [µM]	Ki [3, 11] [pM]	CC50 [2, 12] [µM]	Cmax [4] [µM]	half-life [4] [h]	Cmax [5] [µM]	half-life [5] [h]	EC50 [1, 13] [µM]	Cmax [6] [µM]	half-life [6] [h]	C0 [7] [µM]	half-life [7] [h]	CC50 [8] [µM]	pharmacokinetics in mice [9]	antiviral activity [10]	Ki [3] [pM]
3-(2-Amino-5-isopropyl-benzothiazol-6-yl-sulfanyl)-6-[2-(4-fluoro-phenyl)-ethyl]-phenethyl-4-hydroxy-6-isopropyl-5,6-dihydro-pyran-2-one [Example 16]	10.4	11	114															
3-(4-Amino-2-tert-butyl-5-methyl-phenylsulfanyl)-6-(2-furan-3-yl-ethyl)-4-hydroxy-6-isopropyl-5,6-dihydro-pyran-2-one [Example 36]	77	2.2		1700	170													
Cc1cc(SC2=C(O)C[C@@](CCc3ccsc3)(C(C)C)OC2=O)c(C(C)(C)C)cc1CO [Example 12, (S)-3-(2-tert-Butyl-4-hydroxymethyl-5-methyl-phenylsulfanyl)-4-hydroxy-6-isopropyl-6-(2-thiophen-3-yl-ethyl)-5,6-dihydro-pyran-2-one]	650			70		95	9.5	30	11.5	0.14	149	1.75	160	12	91			
Cc1cc(SC2=C(O)CC(CCc3cc[nH]n3)(C(C)C)OC2=O)c(C(C)(C)C)cc1N (stereo not shown) [Example 41]	10	20		6500	195													
Cc1cc(SC2=C(O)CC(CCc3ccc(N)cc3)(C(C)C)OC2=O)c(C(C)(C)C)cc1CO (stereo not shown) [Reference Agent 1, reference compound]	>200					23	2.2	16	3.4	0.5	140	1.25	86	3.7	> 100	comparatively good pharmacokinetics in mice	particularly good antiviral activity	430
Cc1cc(SC2=C(O)CC(CCc3ccc(O)cc3)(C(C)C)OC2=O)c(C(C)(C)C)cc1CO (stereo not shown) [Reference Agent 2, reference compound]	>166			220		17	2	3.4	0.55	0.6	40	0.52	100	3.9	> 100	comparatively good pharmacokinetics in mice	particularly good antiviral activity	
(S)-N-[6-tert-Butyl-5-(4-hydroxy-6-isopropyl-2-oxo-6-[2-(4-hydroxy-phenyl)ethyl]-5,6-dihydro-2H-pyran-3-ylsulfanyl)-indolin-1yl]-(4-cyanophenyl)sulfonamide [Example 70]	6	1.3		820	8													
